Test results taken from patent US8962641B2, “Pyrimidine-substituted pyrrolidine derivatives, pharmaceutical compositions and uses thereof” (Boehringer Ingelheim International GmbH, priority 2013, dated 2015).

Target: human ACC2 (Homo sapiens (Human), UniProt O00763)
Assay: ACC2 assay (spectrophotometric 384 well assay, NADH-linked kinetic method)
Format: biochemical
Settings: hACC2 construct lacking 128 N-terminal amino acids; coupled lactate dehydrogenase/pyruvate kinase reaction, 340 nm, 25° C.
In short: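 Baculovirus/insect-cell human ACC2, anion-exchange purified; ADP formation coupled to pyruvate kinase/lactate dehydrogenase, NADH loss followed at 340 nm, 25° C, 15 min. Final 200 μM NADH and acetyl-CoA, 500 uM ATP; vehicle and no-acetyl-CoA wells set 100% and 0%.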

Sequence of human ACC2 (O00763 129-2458): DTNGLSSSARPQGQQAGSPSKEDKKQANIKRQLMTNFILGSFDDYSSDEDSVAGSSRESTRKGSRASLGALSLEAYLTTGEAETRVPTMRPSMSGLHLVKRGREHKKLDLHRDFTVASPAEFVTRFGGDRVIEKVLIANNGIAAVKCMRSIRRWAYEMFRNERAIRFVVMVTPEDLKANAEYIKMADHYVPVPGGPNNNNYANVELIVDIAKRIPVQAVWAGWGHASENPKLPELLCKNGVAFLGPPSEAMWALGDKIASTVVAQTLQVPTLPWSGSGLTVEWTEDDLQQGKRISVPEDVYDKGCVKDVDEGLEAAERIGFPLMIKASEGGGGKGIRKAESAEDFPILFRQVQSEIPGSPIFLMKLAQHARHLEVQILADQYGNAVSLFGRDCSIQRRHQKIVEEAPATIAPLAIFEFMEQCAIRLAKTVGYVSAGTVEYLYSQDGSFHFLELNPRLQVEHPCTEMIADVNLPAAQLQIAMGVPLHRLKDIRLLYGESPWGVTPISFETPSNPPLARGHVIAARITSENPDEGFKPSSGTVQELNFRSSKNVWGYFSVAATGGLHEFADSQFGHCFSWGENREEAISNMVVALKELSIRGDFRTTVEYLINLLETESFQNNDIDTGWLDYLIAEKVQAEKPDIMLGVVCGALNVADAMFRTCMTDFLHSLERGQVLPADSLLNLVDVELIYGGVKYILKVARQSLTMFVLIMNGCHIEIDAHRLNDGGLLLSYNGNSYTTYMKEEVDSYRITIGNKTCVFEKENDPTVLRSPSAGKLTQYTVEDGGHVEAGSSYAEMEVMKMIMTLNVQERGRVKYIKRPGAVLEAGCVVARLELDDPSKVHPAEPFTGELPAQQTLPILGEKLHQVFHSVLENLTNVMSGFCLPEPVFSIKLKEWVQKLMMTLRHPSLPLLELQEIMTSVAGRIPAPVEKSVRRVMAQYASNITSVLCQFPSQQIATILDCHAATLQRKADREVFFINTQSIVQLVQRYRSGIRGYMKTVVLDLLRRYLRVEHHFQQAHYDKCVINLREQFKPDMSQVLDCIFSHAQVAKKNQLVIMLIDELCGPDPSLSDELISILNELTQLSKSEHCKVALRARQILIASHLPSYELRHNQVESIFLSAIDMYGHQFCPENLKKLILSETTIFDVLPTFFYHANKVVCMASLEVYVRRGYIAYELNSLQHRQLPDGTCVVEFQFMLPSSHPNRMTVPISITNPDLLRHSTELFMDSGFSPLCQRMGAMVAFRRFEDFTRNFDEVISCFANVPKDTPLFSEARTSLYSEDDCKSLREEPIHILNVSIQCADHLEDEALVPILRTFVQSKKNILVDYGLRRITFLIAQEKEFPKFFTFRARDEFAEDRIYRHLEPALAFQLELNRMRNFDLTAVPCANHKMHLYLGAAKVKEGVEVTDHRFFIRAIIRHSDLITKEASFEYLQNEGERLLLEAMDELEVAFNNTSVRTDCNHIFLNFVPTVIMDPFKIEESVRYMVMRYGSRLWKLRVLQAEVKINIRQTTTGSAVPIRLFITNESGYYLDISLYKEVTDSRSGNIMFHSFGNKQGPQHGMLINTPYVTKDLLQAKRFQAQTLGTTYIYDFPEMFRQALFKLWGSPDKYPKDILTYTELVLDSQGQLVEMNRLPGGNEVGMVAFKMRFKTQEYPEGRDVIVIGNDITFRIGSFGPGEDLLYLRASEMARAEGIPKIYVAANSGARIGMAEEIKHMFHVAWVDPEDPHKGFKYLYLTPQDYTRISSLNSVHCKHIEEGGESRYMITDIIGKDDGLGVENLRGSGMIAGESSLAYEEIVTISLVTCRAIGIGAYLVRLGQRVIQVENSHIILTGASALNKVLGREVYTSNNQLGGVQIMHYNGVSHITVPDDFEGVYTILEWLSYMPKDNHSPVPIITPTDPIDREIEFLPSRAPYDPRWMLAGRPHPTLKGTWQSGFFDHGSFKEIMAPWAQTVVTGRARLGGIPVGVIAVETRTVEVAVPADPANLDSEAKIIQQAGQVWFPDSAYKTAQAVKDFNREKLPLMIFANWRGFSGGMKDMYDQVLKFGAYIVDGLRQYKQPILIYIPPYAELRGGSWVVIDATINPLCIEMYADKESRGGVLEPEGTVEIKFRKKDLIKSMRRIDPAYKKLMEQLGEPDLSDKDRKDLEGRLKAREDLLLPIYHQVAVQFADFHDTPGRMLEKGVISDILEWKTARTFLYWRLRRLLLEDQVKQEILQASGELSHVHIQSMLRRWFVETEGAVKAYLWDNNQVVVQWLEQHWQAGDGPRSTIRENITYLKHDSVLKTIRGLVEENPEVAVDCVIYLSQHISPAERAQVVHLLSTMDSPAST

| IC50 [nM] | SMILES |
| --- | --- |
| 176 | CC(=O)N[C@@H](C)c1ccc(O[C@@H]2CCN(c3ncnc(NCC4(O)CC4)c3Cl)C2)cc1 [Example 8.305] |
| 105 | CC(=O)N[C@@H](C)c1ccc(O[C@@H]2CCN(c3ncnc(NC4CCCC4)c3Cl)C2)cc1 [Example 8.308] |
| 286 | CCCNc1ncnc(N2CC[C@@H](Oc3ccc([C@H](C)NC(=O)c4sc(NC(=O)CC)nc4C)cc3)C2)c1Cl [Example 8.312] |
| 345 | CCC(C)Nc1ncnc(N2CC[C@@H](Oc3ccc([C@H](C)NC(C)=O)cc3)C2)c1Cl (some centres unmarked) [Example 8.314] |
| 552 | CCC(=O)Nc1nc(C)c(C(=O)N[C@@H](C)c2ccc(O[C@@H]3CCN(c4ncnc(NCC(F)F)c4Cl)C3)cc2)s1 [Example 8.315] |
| 580 | CC(=O)N[C@@H](C)c1ccc(O[C@@H]2CCN(c3ncnc(NCC4CCCCO4)c3Cl)C2)cc1 (some centres unmarked) [Example 8.316] |
| 703 | CCCNc1ncnc(N2CC[C@@H](Oc3ccc([C@H](C)NC(=O)c4sc(NC(=O)CC)nc4C)cc3)C2)c1F [Example 8.318] |
| 725 | COc1cccc(-c2nccc(N3CC[C@@H](Oc4ccc([C@H](C)NC(C)=O)cc4)C3)n2)c1 [Example 9.1, N—((S)-1-(4-((R)-1-(2-(3-methoxyphenyl)pyrimidin-4-yl)pyrrolidin-3-yloxy)phenyl)ethyl)acetamide] |
| 342 | CC(=O)N[C@@H](C)c1ccc(O[C@@H]2CCN(c3ncnc(C4CCC4)c3F)C2)cc1 [Example 9.3] |
| 464 | CC(=O)N[C@@H](C)c1ccc(O[C@@H]2CCN(c3ncnc(C4CCCC4)c3F)C2)cc1 [Example 9.4] |
| 1010 | CC(=O)N[C@@H](C)c1ccc(O[C@@H]2CCN(c3ncnc(C4CC4)c3F)C2)cc1 [Example 9.5] |
| 120 | C[C@H](NC(=O)C1CC1)c1ccc(O[C@@H]2CCN(c3nc(N4CCC5(CC5)C4)ncc3F)C2)cc1 [Example 10.4] |
| 295 | C[C@H](NC(=O)C1CC1)c1ccc(O[C@@H]2CCN(c3nc(N4CCOCC4)ncc3F)C2)cc1 [Example 10.5] |

Further lines, the molecule ahead of its results:

| SMILES | IC50 [nM] |
| --- | --- |
| CCC(=O)Nc1nc(C)c(C(=O)N[C@@H](C)c2ccc(O[C@@H]3CCN(c4ncnc(NCC5CC5)c4Cl)C3)cc2)s1 [Example 8.307] | 94 |
| CC(=O)N[C@@H](C)c1ccc(O[C@@H]2CCN(c3ncnc(NCC4CC4)c3Cl)C2)cc1 [Example 8.309] | 42 |
| CC(=O)N[C@@H](C)c1ccc(O[C@@H]2CCN(c3ncnc(N4CC[C@H](C)C4)c3Cl)C2)cc1 [Example 8.310] | 52 |
| CC(=O)N[C@@H](C)c1ccc(O[C@@H]2CCN(c3ncnc(NCC4CCC4)c3Cl)C2)cc1 [Example 8.311] | 62 |
| CC(=O)N[C@@H](C)c1ccc(O[C@@H]2CCN(c3ncnc(NCC4CCCO4)c3Cl)C2)cc1 (some centres unmarked) [Example 8.313] | 306 |
| CCCNc1ncnc(N2CC[C@@H](Oc3ccc([C@H](C)NC(=O)c4sc(NC(=O)CC)nc4C)cc3)C2)c1OC [Example 8.320] | 742 |
| CCC(=O)Nc1nc(C)c(C(=O)N[C@@H](C)c2ccc(O[C@@H]3CCN(c4ncnc(NCC(F)F)c4OC)C3)cc2)s1 [Example 8.321] | 830 |
| CC(=O)N[C@@H](C)c1ccc(O[C@@H]2CCN(c3ncnc(C4CC4)c3Cl)C2)cc1 [Example 9.2] | 987 |
| CC(=O)N[C@@H]1CC[C@H](C(=O)N[C@@H](C)c2ccc(O[C@@H]3CCN(c4ncnc(OCC5CC5)c4F)C3)cc2)C1 [Example 10.1, (1S,3R)-3-acetamido-N—((S)-1-(4-((R)-1-(6-(cyclopropylmethoxy)-5-fluoropyrimidin-4-yl)pyrrolidin-3-yloxy)phenyl)ethyl)cyclopentanecarboxamide] | 235 |
| COCC(=O)N[C@@H]1CC[C@H](C(=O)N[C@@H](C)c2ccc(O[C@@H]3CCN(c4ncnc(OCC5CC5)c4F)C3)cc2)C1 [Example 10.2] | 174 |
